Tests used:
K562 cells = assay: Cell cycle profile by flow cytometry, K562; type: cell-based, human; conditions: 48 hours, FIG. 24A
Experimental: K562 cells were treated with indicated concentrations (mM) of P3-E5 (ranging from […]) or GGTI-298 (ranging from […]) for 48 hours. Cell cycle profiles were monitored by flow cytometry. Percentages of cells in each phase of the cell cycle are indicated by different colors. Red: G0/G1 phase. Black: S phase. Gray: G2/M phase.

[1] = tested on: geranylgeranylated Rheb (Rheb-CSVL) in HEK 293 cells; assay: Rheb-CSVL mobility shift in HEK 293 cells; type: cell-based, human; conditions: 48 hours
From the text: Finally, we investigated in vivo effects of compounds 22 (also known as UC-22) and 23 (also known as UC-23). Human embryonic kidney (HEK) 293 cells were transfected with the Rheb-CSVL construct that expresses the geranylgeranylated form of the Rheb protein. Inhibition of the geranylgeranylation of this protein can be detected from a shift in its mobility on SDS polyacrylamide gel; the unprocessed form appears as a slowly migrating band.
Human embryonic kidney (HEK) 293 cells expressing Myc-HA tagged-Rheb-CVSL (upper) or Myc-HA tagged-Rheb-WT (lower) were treated with P3-E5 for 48 hours and then lysed. The cell lysates were run on a SDS polyacrylamide gel and immunoblotted using anti-Myc or anti-Actin antibody. The descriptors P and U indicate processed and unprocessed Rheb, respectively.
Human embryonic kidney (HEK) 293 cells expressing Myc-HA tagged-Rheb-CVSL (upper) or Myc-HA tagged-Rheb-WT (lower) were treated with mP5-H6a (also referred to as mP5-H6), or GGTI-298 for 48 hours and then lysed. Lysates were run on a SDS polyacrylamide gel and immunoblotted with anti-Myc or anti-Actin antibody.

[2] = tested on: Rab5b geranylgeranylation in NIH3T3 cells; assay: Rab5b immunoblot and subcellular fractionation in NIH3T3 cells; type: cell-based; conditions: 48 hours
Experimental: The inhibition of Rab geranylgeranylation in cells (FIG. 43) was examined according to (29). Briefly, whole cell lysates were subjected to 15% SDS-PAGE containing 4M urea followed by immunoblotting with the antibody against Rab5b (Santa Cruz: sc-598) or actin. Subcellular fractionations (FIG. 44) were performed as described by Gomes et al. (30). Briefly, cells were treated with P49-F6 for 48 hours. After osmotic lysis, cell debris were removed by centrifugation at 500×g for 10 min, and the supernatant was subjected to ultracentrifugation at 100,000×g for 60 min. The supernatant of ultracentrifugation was collected as a soluble fraction. The pellet was collected as a membrane fraction. These fractions were subjected to electrophoresis on 10% SDS-PAGE gels followed by immunoblotting with the antibody against Rab5b. RhoGDI (Santa Cruz: sc-360) and Na^+/K^+ ATPase (Sigma: A276) were used as markers for soluble and membrane fractions, respectively.

PANC-1 xenograft tumor = PANC-1 xenograft tumor growth in SCID mice; type: in vivo; conditions: 1.16 mg/kg i.p., six times per week
Experimental: Xenograft tumor experiments have shown that GGTI's can inhibit PANC-1 tumor growth in mice. Seven SCID mice (six weeks old) received a subcutaneous implantation of 5 million PANC-1 cells. The mice were supplied with food and water for 14 days before treatment was started. The treatment group received 160 uM GGTI (p61A6) in 0.25 ml 0.9% NaCl while the control group received 0.25 ml 0.9% NaCl. Each dosage was injected 3 times per week. These dosage were designed to administer p61A6 at approximately 1.16 mg/kg of body weight. Also, since the mouse has about 2 ml blood, the final concentration of p61A6 in vivo was approximately 20 uM. The final DMSO concentration in the control group was approximately 0.8%.
Additional xenograft tumor experiments have shown that GGTI's can inhibit PANC-1 tumor growth in mice and reduce the size of the tumor. Six SCID mice (six weeks old) received a subcutaneous implantation of 3 million PANC-1 cells. The mice were supplied with food and water for 14 days before treatment began. […] Every two weeks each mouse's body weight and tumor volume was measured.

[3] = tested on: H-Ras farnesylation in NIH3T3 cells; assay: H-Ras mobility shift immunoblot in NIH3T3 cells; type: cell-based; conditions: 48 hours
Experimental: K562 cells were treated with modified compounds for 72 hours and then cell number was counted. IC50 values of cell viability relative to the DMSO were measured. […] Data represent the mean+/−S.D. of two measurements from two independent experiments. *, P<0.05 compared with the value for DMSO. […] Whole cell lysates from cells treated with DMSO, P5-H6, P61-A6, GGTI (GGTI-298), FTI (BMS-225975) or RabGGTI (P49-F6) for 48 hours were prepared and processed for immunoblot analysis using antibody against unprenylated form of Rap1 (C: upper panel), Total-Rap1 (C: middle panel), H-Ras (D: upper panel), Rab5b (E: upper panel) or actin (C, D, and E: lower panel). The immunoblots shown represent two independent experiments for each treatment.
This was examined by using a farnesylated protein H-Ras.

CFpac-1 = CFpac-1 cell growth inhibition; type: cell-based, human; conditions: Homo sapiens, CFPAC-1, 72 h; 3 days, CCK-8, vs DMSO; read-out: IC50, CFpac-1 (Pancreas)
Experimental: (§1) In FIG. 9-24 in vitro IC50 values for the GGTase I activity are reported. In Tables 7-15 in cell GI50 values for the growth inhibition of a variety of cancer cell lines (e.g., Jurkat, K562, MDA-MB-231, BT474, MCF7, MiaPaCa2, Aspc-1, Panc-1, Capan-2, CFpac-1, and MCF10a) are reported.
(§2) Cell viability was determined by Cell Counting Kit-8 (CCK-8, Dojindo, Kumamoto, Japan) as described previously (31). Cell viability was calculated relative to the DMSO control. Cell cycle profile was analyzed by flow cytometry as described previously (32).

Panc-1 = assay: Cell cycle distribution by flow cytometry, PANC-1; type: cell-based, human; conditions: 10 μM, 48 hours
Experimental: as §2

BT474 = BT474 cell growth inhibition; type: cell-based, human; conditions: Homo sapiens, BT-474, 72 h; 3 days, CCK-8, vs DMSO; read-out: IC50, BT474 (Breast)
Experimental: as §1, §2

Jurkat = assay: Cell cycle distribution by flow cytometry, Jurkat; type: cell-based, human; conditions: 10 μM, 48 hours
Experimental: as §2

Cc1ccccc1S(=O)(=O)N1[C@@H](c2cccc(Cl)c2)C(C(=O)O)=CC[C@H]1c1ccc(Cl)cc1 [P3-E5]
cell cycle effect in K562 cells (K562 cells): induces G1 arrest
inhibition of geranylgeranylation of Rheb-CSVL (slowly migrating unprocessed band) [1]: inhibits geranylgeranylation in cells

Cc1ccccc1S(=O)(=O)N1C(c2ccc(Cl)cc2)C(C(=O)NC(Cc2ccccc2)C(N)=O)=CC1C(C)(C)C (centres unmarked) [P61-A6]
inhibition of Rab5b geranylgeranylation (slow migrating unmodified Rab5b band) [2]: did not inhibit geranylgeranylation of Rab5b
PANC-1 xenograft tumor growth (PANC-1 xenograft tumor): almost complete inhibition
mobility shift of H-Ras (protein farnesylation) [3]: no such mobility shift
IC50 (CFpac-1): 6.3 µM
Percent G2/M, PANC-1 (Panc-1; DMSO 24.21): 19.81%
Percent G0/G1, PANC-1 (Panc-1; DMSO 42.08): 54.13%
IC50 (BT474): 8.5 µM
Percent G2/M, Jurkat (Jurkat; DMSO 11.80): 11.60%
Percent G0/G1, Jurkat (Jurkat; DMSO 46.92): 57.87%

Source: patent US8815935B2, “Inhibitors of protein prenyltransferases” (The Regents of the University of California, priority 2008, dated 2014)
